# Patent publication US8778974B2, “Trisubstituted 1,2,4 triazoles” (Janssen Pharmaceutica NV, priority 2008, dated 2014)
# How the values were obtained:
# [1] = biological target: T1, hα7-wt nAChR-expressing GH4Cl cells (Homo sapiens, UniProt P36544); assay: Patch-clamp current recording (whole-cell), potentiation of choline 1 mM response, PAM type; format: cell-based; design: key to Pam type: Type 0 compounds minimally enhance the effect size of the current elicited by 1 mM choline.; Type 1 compounds enhance the effect size of the current elicited by 1 mM choline but minimally alter the kinetics of the receptor.; Type 2 compounds enhance the effect size of the current elicited by 1 mM choline while reducing the rate and/or the extent of desensitization.; Type 3 compounds enhance the effect size of the current elicited by 1 mM choline. When tested at higher concentrations up to 10 μM they completely inhibit desensitization, in particular a 1 mM choline application of 250 milliseconds.; Type 4 compounds allow for an initial desensitization of the receptor followed by a re-opening of the receptor during agonist application; settings: for EC50: according to Ex. D.2, "<5" = no top plateau reached at maximal concentration, read-out: Potency (pEC50) (converted); for Pam type: patch-clamp current recording, 1 mM choline
# T1 construct: expressed in transfected cells
# Protocol: The compounds of the present invention are classified as type 1-4, based on qualitative kinetic properties, as determined by whole-cell voltage-clamp recordings. This classification is based on the effect of an α7 PAM compound, as described hereinbefore, on the signal elicited by an agonist application. In particular, said agonist is choline at a concentration of 1 mM. In a preferred experimental setting, said α7 PAM compound and choline are simultaneously applied to the cell, as described hereinafter. Desensitization is defined as the closure of the receptor upon activation during the application of the agonist in whole-cell voltage-clamp electrophysiology measurements seen as the reduction of the […] current after initial activation by the agonist.
# The definition of the PAM types 1-4 is described hereinafter: • Type 0 compounds minimally enhance the effect size of the current elicited by 1 mM choline. • Type 1 compounds enhance the effect size of the current elicited by 1 mM choline but minimally alter the kinetics of the receptor. In particular, the rate and the extent of desensitization, elicited by the agonist, is not affected. The compound-modulated response to 1 mM choline, therefore, is a close to linear scaling of the 1 mM choline response in absence of the α7 PAM compound. • Type 2 compounds enhance the effect size of the current elicited by 1 mM choline while reducing the rate and/or the extent of desensitization. • Type 3 compounds enhance the effect size of the current elicited by 1 mM choline. […] At low-potency concentrations of the α7 PAM compound, the agonist-induced activation, which is followed by desensitization, can still be separated from the compound-induced re-opening as an initial inward current-maximum. At higher potency concentrations of the α7 PAM compound, the re-opening occurs faster than the closure due to desensitization so that the initial current-maximum disappears.
# Patch-clamp Current Recording
# Patch-clamp recording from mammalian cells has provided a powerful means of assessing the function of membrane-bound proteins thought to be subunits of ligand-gated ion channels. Activation of such proteins by endogenous or exogenous ligands cause opening of a pore associated with the receptor through which ions flow down their electrochemical gradient. In the case of the hα7-wt nAChR-expressing GH4Cl recombinant cell line the preferential permeability to calcium of this receptor means that calcium flows into the cell upon activation by ACh, choline and other nicotinic ligands giving rise to a calcium current. Since this receptor rapidly desensitizes in the presence of agonist it is important an application system is used which is capable of very rapid switching of solutions (<100 ms) to prevent partial or full desensitisation of receptor responses coincident with the time of agonist application. Consequently, a second convenient technique to assess the enhancement of nicotinic efficacy is patch-clamp recording from hα7-wt nAChR-expressing GH4Cl cells coupled with a rapid-application system.
# • a) Assay buffers • The external recording solution consisted of 152 mM NaCl, 5 mM KCl, 1 mM MgCl2, 1 mM Calcium, 10 mM HEPES; pH 7.3. The internal recording solution consisted of 140 mM CsCl, 10 mM HEPES, 10 mM EGTA, 1 mM MgCl2, pH 7.3. • b) Patch-clamp recording was carried out using a Patch-clamp amplifier (Multiclamp 700A, Axon Instruments, Calif., USA). hα7-wt nAChR-expressing GH4Cl cells were patch-clamp in the whole cell configuration (Hamill et al, 1981) with a borosilicate glass electrode of 1.5-3 MΩ tip resistance when filled with the internal recording solution. Recordings were made on cells with membrane resistance >500 MΩ and more preferably 1GΩ and series resistance <15 MΩ with at least 60% series resistance compensation. […]
# T1 sequence (P36544 23-502): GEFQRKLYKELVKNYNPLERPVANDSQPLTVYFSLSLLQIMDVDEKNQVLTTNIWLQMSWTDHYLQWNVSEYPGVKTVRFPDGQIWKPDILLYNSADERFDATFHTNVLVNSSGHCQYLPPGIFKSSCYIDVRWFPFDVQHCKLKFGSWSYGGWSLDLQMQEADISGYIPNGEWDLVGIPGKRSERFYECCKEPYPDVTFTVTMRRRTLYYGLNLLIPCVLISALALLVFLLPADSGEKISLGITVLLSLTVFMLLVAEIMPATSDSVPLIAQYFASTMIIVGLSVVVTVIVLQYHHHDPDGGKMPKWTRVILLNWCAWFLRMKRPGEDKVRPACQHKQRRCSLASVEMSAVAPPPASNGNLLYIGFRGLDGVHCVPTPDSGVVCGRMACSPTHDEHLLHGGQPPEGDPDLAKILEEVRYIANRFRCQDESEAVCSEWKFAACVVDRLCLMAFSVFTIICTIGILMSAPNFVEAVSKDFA
Structure (SMILES),melting point,EC50 [1],Pam type [1]
Cc1cc(-n2nc(Nc3cccc(C(F)(F)F)c3)nc2CC(=O)NCC2CC2)cc(C)n1 [E177],260.9 °C,219 nM,2
CC[C@H](O)Cc1nc(Nc2ccc(F)c(F)c2)nn1-c1cccc(F)c1 [E27],158.1 °C,1910 nM,1
Cc1cc(-n2nc(Nc3ccc(F)c(C(F)(F)F)c3)nc2C[C@@H](C)O)cc(C)n1 [E199],224.4 °C,1070 nM,2
CNC(=O)CCc1nc(Nc2ccc(F)c(C(F)(F)F)c2)nn1-c1cccc(OC)c1 [E42],170.9 °C,2750 nM,
COc1cc(Nc2nc(C[C@H](C)O)n(-c3ccnc(C)c3)n2)cc(C(F)(F)F)c1 [E135],196.3 °C,550 nM,4
Cc1cc(-n2nc(Nc3ccc(F)c(C(F)(F)F)c3)nc2CCC(=O)N(C)C)cc(C)n1 [E233],184 °C,~29.5 nM,
"Cc1cc(-n2nc(Nc3ccc4c(c3)OC(F)(F)O4)nc2CC(=O)NC2CC2)cc(C)n1 [E180, N-cyclopropyl-3-[(2,2-difluoro-1,3-benzodioxol-5-yl)amino]-1-(2,6-dimethyl-4-pyridinyl)-1H-1,2,4-triazole-5-acetamide]",292.6 °C,302 nM,2
Cc1cc(-n2nc(Nc3cccc(C(F)(F)F)c3)nc2CC(=O)NC2CC2)cc(C)n1 [E171],270 °C,501 nM,4
OCCCc1nc(Nc2ccc(F)c(C(F)(F)F)c2)nn1-c1ccncc1Cl [E14],152.9 °C,3980 nM,
Cc1cc(-n2nc(Nc3ccc(F)c(F)c3F)nc2CC(=O)NC2CC2)cc(C)n1 [E211],237.3 °C,372 nM,2
"Cc1cc(-n2nc(Nc3ccc(F)c(C(F)(F)F)c3)nc2CC(C)O)ccn1 (stereo not drawn) [E10, 3-[[4-Fluoro-3-(trifluoromethyl)phenyl]amino]-alpha-methyl-1-(2-methyl-4-pyridinyl)-, (alphaS)-1H-1,2,4-triazole-5-ethanol]",192.7 °C,1050 nM,2
CN(C)C(=O)CCc1nc(Nc2ccc3c(c2)OC(F)(F)O3)nn1-c1cccnc1Cl [E118],195.8 °C,692 nM,
CC[C@@H](O)Cc1nc(Nc2cc(OC)cc(C(F)(F)F)c2)nn1-c1ccc(C)nc1 [E195],151.9 °C,3630 nM,
Cc1cc(-n2nc(Nc3cccc(C(F)(F)F)c3)nc2CC(=O)NC2CCC2)cc(C)n1 [E174],276.3 °C,162 nM,2
CC[C@H](O)Cc1nc(Nc2cccc(Cl)c2F)nn1-c1ccnc(C)c1 [E173],127.9 °C,407 nM,2
"Cc1cc(-n2nc(Nc3ccc(F)c(C(F)(F)F)c3)nc2CCCCl)ccn1 [E9, 5-(3-chloropropyl)-N-[4-fluoro-3-(trifluoromethyl)phenyl]-1-(2-methyl-4-pyridinyl)-1H-1,2,4-triazol-3-amine]",182.8 °C,437 nM,
"CC[C@H](O)Cc1nc(Nc2cc(OC)cc(C(F)(F)F)c2)nn1-c1ccnc(C)c1 [E137, (alphaS)-alpha-Ethyl-3-[[3-methoxy-5-(trifluoromethyl)phenyl]amino]-1-(2-methyl-4-pyridinyl)-1H-1,2,4-triazole-5-ethanol]",174.1 °C,105 nM,4
CC[C@H](O)Cc1nc(Nc2ccc(F)c(F)c2)nn1-c1ccc(C)nc1 [E140],127.5 °C,1620 nM,2
CC[C@H](O)Cc1nc(Nc2ccc(F)c(F)c2)nn1-c1cccc(OC)c1 [E149],144.1 °C,1380 nM,

Structure (SMILES),melting point,EC50 [1],Pam type [1]
Cc1cc(-n2nc(Nc3ccc4c(c3)OC(F)(F)O4)nc2CC(=O)NC2CC2)c(C)cn1 [E160],248.3 °C,2140 nM,2
CN(C)C(=O)CCc1nc(Nc2cccc(OC(F)(F)F)c2)nn1-c1cccnc1Cl [E76],145.7 °C,407 nM,
CN(C)C(=O)CCc1nc(Nc2ccc(F)c(F)c2)nn1-c1ccc(Cl)cc1 [E59],145.1 °C,245 nM,4
CN(C)C(=O)CCc1nc(Nc2ccc(F)c(F)c2)nn1-c1cccc(Cl)c1 [E58],165.4 °C,339 nM,
Cc1cc(-n2nc(Nc3ccc4c(c3)OC(F)(F)O4)nc2CC(=O)NCC2CC2)cc(C)n1 [E201],270.3 °C,302 nM,2
CC[C@H](O)Cc1nc(Nc2ccc(F)c(F)c2)nn1-c1ccc(F)cc1 [E28],157.3 °C,1910 nM,1
CCNC(=O)Cc1nc(Nc2ccc(F)c(F)c2F)nn1-c1cc(C)nc(C)c1 [E210],241.5 °C,417 nM,2
"CCNC(=O)Cc1nc(Nc2cccc(Cl)c2F)nn1-c1cc(C)nc(C)c1 [E153, 3-[(3-chloro-2-fluorophenyl)amino]-1-(2,6-dimethyl-4-pyridinyl)-N-ethyl-1H-1,2,4-triazole-5-acetamide]",231.4 °C,562 nM,2
Cc1cc(-n2nc(Nc3ccc4c(c3)OC(F)(F)O4)nc2CC(=O)NC2CCC2)cc(C)n1 [E179],291.3 °C,97.7 nM,1
CN(C)C(=O)CCc1nc(Nc2ccc(F)c(F)c2)nn1-c1ccccc1Cl [E57],179.6 °C,1070 nM,3
CC[C@H](O)Cc1nc(Nc2cccc(Cl)c2)nn1-c1cc(C)nc(C)c1 [E129],154.6 °C,245 nM,2
Cc1ccc(-n2nc(Nc3cccc(OC(F)(F)F)c3)nc2CCC(=O)N(C)C)cn1 [E75],174.3 °C,186 nM,4
COc1cccc(-n2nc(Nc3cccc(OC(F)(F)F)c3)nc2CCC(=O)N(C)C)c1 [E60],133.5 °C,282 nM,0
CNC(=O)Cc1nc(Nc2ccc(F)c(C(F)(F)F)c2)nn1-c1ccnc(C)c1 [E35],272.9 °C,1170 nM,3
CN(C)C(=O)CCc1nc(Nc2ccc(F)c(C(F)(F)F)c2)nn1-c1ccncc1Cl [E74],181.7 °C,72.4 nM,4
CC[C@H](O)Cc1nc(Nc2cc(OC)cc(C(F)(F)F)c2)nn1-c1ccc(C)nc1 [E142],154.7 °C,182 nM,4
Cc1cc(-n2nc(Nc3cc(F)c(F)c(F)c3)nc2C[C@H](C)O)ccn1 [E207],200.2 °C,1320 nM,2
"Cc1cc(-n2nc(Nc3ccc(F)c(C(F)(F)F)c3)nc2CCCF)ccn1 [E8, 5-(3-Fluoropropyl)-N-[4-fluoro-3-(trifluoromethyl)phenyl]-1-(2-methyl-4-pyridinyl)-1H-1,2,4-triazol-3-amine]",191.5 °C,513 nM,0
